The values that follow come from ChEMBL document CHEMBL1145174, “Potent 4-aryl- or 4-arylalkyl-substituted 3-isoxazolol GABA(A) antagonists: synthesis, pharmacology, and molecular modeling” (J Med Chem, 2005).

Test [1] deals with GABA-A receptor (Mus musculus). The test is described as follows: cells.
For test [2], the target named is GABA-A receptor; anion channel. The test is described as follows: Displacement of [3H]muscimol from rat brain gamma-aminobutyric-acid GABA-A receptor. For orientation: In a radioligand displacement assay an active substance lowers the binding of a labelled ligand.

Broadly, the IC50 is the concentration that gives 50% inhibition. High values mean weaker potency in that assay, low ones greater potency in that assay. In general, Ki refers to the equilibrium dissociation constant of an inhibitor or competing ligand from its target. A low value points to higher affinity. Molecule `Oc1noc(C2CCNCC2)c1Cc1ccc2ccccc2c1-c1ccccc1` showed an IC50 in test [1] of 198 nM. In test [2], affinity was put at a Ki of 21 nM.

For the molecule `Oc1noc(C2CCNCC2)c1Cc1ccc2ccc(Br)cc2c1`, the IC50 in test [1] amounted to 384 nM. In test [2], this molecule returned a Ki of 109 nM. In test [1], `CSc1c(Cc2c(O)noc2C2CCNCC2)ccc2ccccc12` registered an IC50 of 61 nM. The Ki in test [2] turned out to be 28 nM. `Oc1noc(C2CCNCC2)c1Cc1ccc2ccccc2c1F` registered a half-maximal inhibitory concentration (IC50) in test [1] of 242 nM. In test [2], this molecule yielded a Ki of 19 nM. `Oc1noc(C2CCNCC2)c1Cc1ccc2ccccc2c1Br`: the half-inhibitory concentration (IC50) in test [1] was 42 nM. Also, in test [2], the inhibition constant Ki was found to be 10 nM.

For `Oc1noc(C2CCNCC2)c1Cc1ccc2ccccc2c1Sc1ccccc1`, the IC50 in test [1] came out at 126 nM. In test [2], this molecule gave an inhibition constant (Ki) of 250 nM. Take `Oc1noc(C2CCNCC2)c1Cc1ccc2ccccc2c1`: it took 370 nM to reach half-maximal inhibition in test [1] (IC50). Consider `Oc1noc(C2CCNCC2)c1Cc1ccc2c(Br)cccc2c1`, for which, in test [1], half-maximal inhibition (IC50) was put at 215 nM. In test [2], this molecule came in with a Ki of 80 nM.

Regarding `Oc1noc(C2CCNCC2)c1Cc1ccc2ccccc2c1Cl`, the concentration for half-maximal inhibition (IC50) in test [1] came out at 113 nM. Further, in test [2], the Ki was determined as 16 nM. Regarding `O=c1[nH]oc(C2CCNCC2)c1-c1cccc2ccccc12`, the IC50 in test [1] came to 334 nM. Further, in test [2], the inhibitory constant (Ki) was 820 nM. `Oc1noc(C2CCNCC2)c1-c1ccc2ccccc2c1` gave an IC50 in test [1] of 141 nM. Also, affinity in test [2] was put at a Ki of 36 nM. In turn, `N#Cc1c(Cc2c(O)noc2C2CCNCC2)ccc2ccccc12` gave an IC50 in test [1] of 140 nM. This molecule also gave a Ki in test [2] of 28 nM. As to `Oc1noc(C2CCNCC2)c1-c1ccccc1`, the IC50 in test [1] is 159 nM. For the same molecule, the Ki in test [2] worked out at 220 nM.

In test [1], `Oc1noc(C2CCNCC2)c1Cc1ccc2cccc(Br)c2c1` showed an IC50 of 226 nM. Besides, in test [2], the Ki is 45 nM.
